Experimental data from patent US8367098B2, “Unique combinations of antimicrobial compositions” (The Population Council, Inc., priority 2002, dated 2013).

Key:
[1] = Diffusion of NES through dialysis membrane (HPLC); format: physicochemical; conditions: membrane cutoff 1000, HPLC
Source text: We examined diffusion of NES through a dialysis membrane with a molecular weight cutoff of 1000. The molecular weight of NES is 370. […] Results are illustrated in FIG. 10. […] However, the rate of diffusion observed through the dialysis membrane cannot be related to the rate of diffusion that would be observed in the human vagina as the rate of diffusion was dependant on the surface area of the dialysis bag. Conditions in the vagina would be different.
Diffusion of NES from CARRA/NES was investigated by two different methods, membrane dialysis and Ultrafree-15 centrifugation. In the membrane dialysis experiments, the membrane cutoff is 1,000, and diffusion of NES was measured by HPLC. […] In the Ultrafree-15 centrifugation experiments, a Millipore, Ultrafree-15 centrifugal filter and tube assembly was employed, which allows the passage of molecules of a MW<500 pass through; NES MW is 370.

HIV-1 = conditions: p24 ELISA and RT; cited from earlier work
[2] = in vivo, po; cited from earlier work
[3] = in vivo; cited from earlier work

In the case of C=C1C[C@H]2[C@@H]3CCC4=CC(=O)CC[C@@H]4[C@H]3CC[C@]2(C)[C@@]1(OC(C)=O)C(C)=O [NES, 16-methylene-17α-acetoxy-19-norpregn-4-ene-3,20-dione], the “diffusion of NES through dialysis membrane” value [1] is reported as “diffused from the dialysis bag at a constant rate”.
In the case of CC(=O)[O-].CC(=O)[O-].[Cd+2] [cadmium acetate], the “effect on HIV-1 production” value (HIV-1) is given as “inhibited HIV-1 production”.
For [Cl][Hg][Cl] [mercury chloride], the “effect on HIV-1 production” value (HIV-1) is listed as “inhibited HIV-1 production”.
In the case of [Cl-].[Cl-].[Zn+2] [zinc chloride], the “effect on HIV-1 production” value (HIV-1) is given as “inhibited HIV-1 production”.
For Carrageenan, the “absorption from the gastrointestinal tract” value [2] is listed as “virtually non-existent” and the “toxicity by oral, dermal, and inhalation routes” value [3] is listed as “non-toxic”.
